In patent US10653664B2, “Antibacterial compositions of mono-alkyl ethers of monoanhydro-hexitols and antibacterial methods using of the same” (TEREOS STARCH & SWEETENERS, priority 2014, dated 2020):
In brackets after ≈: the same amount, converted by molar mass.

Legend:
Assay in all cases: MIC, 96-well microplate microdilution (Example 14)
Format in all cases: cell-based
[1] = tested on: E. faecalis (ATCC 29212); settings: Enterococcus faecalis, ATCC29212, Table 5, read-out: Minimum inhibitory concentration (MIC)
Procedure: (§1) The bacteriostatic properties of the derivatives are evaluated by measuring their minimum inhibitory concentration (MIC) on the bacteria tested. These measurements are made using the 96-well microplate microdilution method according to the conditions defined below. The minimum inhibitory concentrations (MIC) are tested on Gram-positive bacterial strains according to the recommendations of the “Clinical Laboratory Standards Institute” (Clinical-Laboratory-Standards-Institute, 6th ed. Approved standard M100-S17. CLSI, Wayne, Pa., 2007). The Gram-positive bacteria studied are as follows: L. monocytogenes (CIP 103575), E. faecalis (ATCC® 29212™) and S. aureus (ATCC® 292213 ™). The cultures studied, freshly isolated (after incubation on a blood agar at 37° C. for 18 h), are taken up in sterile water (10 mL) until obtaining a 0.5 McFarland (Mc) suspension i.e. 1 to 2×10^8 CFU (bacteria)/cm^3. The bacterial suspension was then diluted to obtain a final concentration of 5×10^5 CFU/cm3. Each well contains an identical quantity of Mueller-Hinton medium (a rich medium for bacterial culture) and bacteria with final 5×10^5 CFU/cm3. The test compounds of interest are solubilized in 2.5% of ethanol before being diluted to different concentrations two by two. On the multiwell plate, a first series has been planned comprising the culture medium without the test compound of interest. It corresponds to the growth control (control well). These controls serve as reference for comparing bacterial growth with that of the subsequent wells comprising different concentrations of the test compound of interest. The second series of wells comprises the mother solution for the test compound of interest for a concentration in the wells of 4 mM. Each series of wells was diluted two by two until the last series for a final concentration of 0.003 mM. Each concentration is duplicated in the same plate. The plate is incubated for 18 h at 37° C. […] If there is antibacterial activity, the bacterial growth is inhibited, which means that no turbidity or bacterial residue is present.

[2] = tested on: S. aureus (ATCC 292213); settings: for MIC: Staphylococcus aureus, ATCC292213, Table 5, read-out: Minimum inhibitory concentration (MIC)
Procedure: as §1

[3] = tested on: L. monocytogenes (CIP 103575); settings: for MIC: Listeria monocytogenes, CIP103575, Table 5, read-out: Minimum inhibitory concentration (MIC)
Procedure: as §1

[4] = Table 7 comparison with reference products

| SMILES | MIC [1] | MIC [2] | MIC [3] | Minimum inhibitory concentration (MIC) [2, 4] | Minimum inhibitory concentration (MIC) [3, 4] |
| --- | --- | --- | --- | --- | --- |
| CCCCCOCC(O)[C@H]1OCC(O)C1O (some centres unmarked) [Entry 1, (1,4)-sorbitan pentyl ethers] | > 4 mM | > 4 mM | > 4 mM | – | – |
| CCCCCCOCC(O)[C@H]1OCC(O)C1O (some centres unmarked) [Entry 2] | > 4 mM | > 4 mM | > 4 mM | – | – |
| CCCCCCCCOCC(O)[C@H]1OCC(O)C1O (some centres unmarked) [Entry 3, Octyl-1,4-sorbitan] | > 4 mM | > 4 mM | > 4 mM | – | – |
| CCCCCCCCCCOCC(O)[C@H]1OCC(O)C1O (some centres unmarked) [Entry 4, Decyl-1,4-sorbitan] | > 4 mM | > 4 mM | > 4 mM | – | – |
| CCCCCCCCCCCC(=O)OCC(O)CO (centres unmarked) [ML, monolaurine, reference compound] | – | – | – | 0.04 mM (≈ 11 µg/mL) | 0.04 mM (≈ 11 µg/mL) |
